Results: patent publication US20160002204A1 (Board of Regents, The University of Texas System, priority 2014, published 2016)

What was measured:
[1] = target: T1, GLS1 (purified recombinant human GAC) (Homo sapiens, UniProt O94925); assay: GLS1 enzymatic activity assay (dual-coupled, Amplex UltraRed/resorufin); format: biochemical
T1 sequence (O94925 55-598 isoform O94925-3 limits assumed): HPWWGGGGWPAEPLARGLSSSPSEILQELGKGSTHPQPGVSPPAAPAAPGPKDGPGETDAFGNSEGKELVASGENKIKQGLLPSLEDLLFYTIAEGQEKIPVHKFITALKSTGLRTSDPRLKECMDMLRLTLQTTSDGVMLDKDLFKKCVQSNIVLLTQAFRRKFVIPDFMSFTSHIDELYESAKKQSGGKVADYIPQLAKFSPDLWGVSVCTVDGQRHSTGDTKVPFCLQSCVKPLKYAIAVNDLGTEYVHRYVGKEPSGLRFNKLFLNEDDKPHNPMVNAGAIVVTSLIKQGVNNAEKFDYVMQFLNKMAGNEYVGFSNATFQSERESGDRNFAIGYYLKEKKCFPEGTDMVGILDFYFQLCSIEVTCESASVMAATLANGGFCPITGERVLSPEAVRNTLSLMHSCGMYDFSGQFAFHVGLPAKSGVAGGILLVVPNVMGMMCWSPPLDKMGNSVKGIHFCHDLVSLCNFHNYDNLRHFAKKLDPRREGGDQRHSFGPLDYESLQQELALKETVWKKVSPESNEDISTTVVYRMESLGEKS
Outline: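 In this coupled fluorometric format, phosphate-activated GAC (2 nM, 50 mM phosphate) is pre-exposed to compound for 10 min before 1 mM glutamine addition. Product is tracked as resorufin (530/590 nm) over time or at 20 min, and potency is derived by logistic fitting.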

A549 cells = assay: A549 proliferation (viability) assay, Cell Titer Fluor, 72 hours; format: cell-based; details: Homo sapiens
Outline: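 Compound was added to A549 cells (1000/well, pre-grown 24 h in RPMI 1640 plus 10% dialyzed FBS) at 0.5% DMSO and left 72 h under 37 °C, 5% CO2, ambient O2. Live-cell fluorescence (Cell Titer Fluor) gave the EC50.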

SMILES | IC50 [1] [nM] | EC50 (A549 cells) [nM]
O=C(NCc1cc(C(F)(F)F)ccn1)c1cn(CC(F)CCn2ccc(COc3ccc(F)cc3F)cc2=O)nn1 (centres unmarked) [Example 484, 1-{4-[4-(2,4-difluorophenoxymethyl)-2-oxo-1,2-dihydropyridin-1-yl]-2-fluorobutyl}-N-{[4-(trifluoromethyl)pyridin-2-yl]methyl}-1H-1,2,3-triazole-4-carboxamide] | < 100 | 100 to 500
O=C(NCc1cc(C(F)(F)F)ccn1)c1cn(CC(F)CCn2ccc(COc3c(F)cccc3F)cc2=O)nn1 (centres unmarked) [Example 485, 1-{4-[4-(2,6-difluorophenoxymethyl)-2-oxo-1,2-dihydropyridin-1-yl]-2-fluorobutyl}-N-{[4-(trifluoromethyl)pyridin-2-yl]methyl}-1H-1,2,3-triazole-4-carboxamide] | 100 to 500 | 100 to 500
O=C(NCc1cc(C(F)(F)F)ccn1)c1cn(CC(F)CCn2ccc(COc3ccc(Cl)cc3)cc2=O)nn1 (centres unmarked) [Example 486, 1-{4-[4-(4-chlorophenoxymethyl)-2-oxo-1,2-dihydropyridin-1-yl]-2-fluorobutyl}-N-{[4-(trifluoromethyl)pyridin-2-yl]methyl}-1H-1,2,3-triazole-4-carboxamide] | < 100 | < 100
O=C(NCc1cc(C(F)(F)F)ccn1)c1cn(CC(F)CCn2ccc(COc3ccccc3F)cc2=O)nn1 (centres unmarked) [Example 487, 1-{2-fluoro-4-[4-(2-fluorophenoxymethyl)-2-oxo-1,2-dihydropyridin-1-yl]butyl}-N-{[4-(trifluoromethyl)pyridin-2-yl]methyl}-1H-1,2,3-triazole-4-carboxamide] | 100 to 500 | 100 to 500
O=C(Nc1ccn(CCC(F)Cn2cc(C(=O)NCc3cc(C(F)(F)F)ccn3)nn2)c(=O)n1)OCc1ccccc1 (centres unmarked) [Example 488, benzyl N-(1-{3-fluoro-4-[4-({[4-(trifluoromethyl)pyridin-2-yl]methyl}carbamoyl)-1H-1,2,3-triazol-1-yl]butyl}-2-oxo-1,2-dihydropyrimidin-4-yl)carbamate] | < 100 | < 100
O=C(Nc1ccn(CCC(F)Cn2cc(C(=O)NCc3cccc(OC(F)(F)F)c3)nn2)c(=O)n1)OCc1ccccc1F (centres unmarked) [Example 489, (2-fluorophenyl)methyl N-(1-{3-fluoro-4-[4-({[3-(trifluoro-methoxy)phenyl]methyl}carbamoyl)-1H-1,2,3-triazol-1-yl]butyl}-2-oxo-1,2-dihydropyrimidin-4-yl)carbamate] | < 100 | < 100
CC(C)COC(=O)Nc1ccn(CCC(F)Cn2cc(C(=O)NCc3cc(C(F)(F)F)ccn3)nn2)c(=O)n1 (centres unmarked) [Example 490, 2-methylpropyl N-(1-{3-fluoro-4-[4-({[4-(trifluoromethyl)pyridin-2-yl]methyl}carbamoyl)-1H-1,2,3-triazol-1-yl]butyl}-2-oxo-1,2-dihydropyrimidin-4-yl)carbamate] | < 100 | 100 to 500
O=C(Nc1ccn(CCC(F)Cn2cc(C(=O)NCc3cccc(OC(F)(F)F)c3)nn2)c(=O)n1)OCc1cccc(OC(F)(F)F)c1 (centres unmarked) [Example 491, 3-(trifluoromethoxy)benzyl(1-(3-fluoro-4-(4-((3-(trifluoromethoxy)benzyl)carbamoyl)-1H-1,2,3-triazol-1-yl)butyl)-2-oxo-1,2-dihydropyrimidin-4-yl)carbamate] | < 100 | < 100
CC(C)(C)COC(=O)Nc1ccn(CCC(F)Cn2cc(C(=O)NCc3cc(C(F)(F)F)ccn3)nn2)c(=O)n1 (centres unmarked) [Example 492, 2,2-dimethylpropyl N-(1-{3-fluoro-4-[4-({[4-(trifluoromethyl)pyridin-2-yl]methyl}carbamoyl)-1H-1,2,3-triazol-1-yl]butyl}-2-oxo-1,2-dihydropyrimidin-4-yl)carbamate] | < 100 | < 100
CC(C)(C)COC(=O)Nc1ccn(CCC(F)Cn2cc(C(=O)NCc3cccc(OC(F)(F)F)c3)nn2)c(=O)n1 (centres unmarked) [Example 493, 2,2-dimethylpropyl N-(1-{3-fluoro-4-[4-({[3-(trifluoro-methoxy)phenyl]methyl}carbamoyl)-1H-1,2,3-triazol-1-yl]butyl}-2-oxo-1,2-dihydropyrimidin-4-yl)carbamate] | < 100 | < 100
O=C(NCc1cc(C(F)(F)F)ccn1)c1cn(CC(F)CCn2ccc(Cn3ccccc3=O)cc2=O)nn1 (centres unmarked) [Example 494, 1-(2-fluoro-4-{2-oxo-4-[(2-oxo-1,2-dihydropyridin-1-yl)methyl]-1,2-dihydropyridin-1-yl}butyl)-N-{[4-(trifluoromethyl)pyridin-2-yl]methyl}-1H-1,2,3-triazole-4-carboxamide] | 500 to 5000 | > 5000
O=C(Nc1ccn(CCC(F)Cn2cc(C(=O)NCc3cc(C(F)(F)F)ccn3)nn2)c(=O)n1)OC1CCC(F)(F)CC1 (centres unmarked) [Example 495, 4,4-difluorocyclohexyl N-(1-{3-fluoro-4-[4-({[4-(trifluoromethyl)pyridin-2-yl]methyl}carbamoyl)-1H-1,2,3-triazol-1-yl]butyl}-2-oxo-1,2-dihydropyrimidin-4-yl)carbamate] | < 100 | 500 to 5000
O=C(Nc1ccn(CCC(F)Cn2cc(C(=O)NCc3cc(C(F)(F)F)ccn3)nn2)c(=O)n1)NC1CCC1 (centres unmarked) [Example 496, 1-(4-{4-[(cyclobutylcarbamoyl)amino]-2-oxo-1,2-dihydropyrimidin-1-yl}-2-fluorobutyl)-N-{[4-(trifluoromethyl)pyridin-2-yl]methyl}-1H-1,2,3-triazole-4-carboxamide] | 500 to 5000 | > 5000
CC(OC(=O)Nc1ccn(CCC(F)Cn2cc(C(=O)NCc3cccc(OC(F)(F)F)c3)nn2)c(=O)n1)c1ccccc1 (centres unmarked) [Example 497, 1-phenylethyl N-(1-{3-fluoro-4-[4-({[3-(trifluoromethoxy)phenyl]methyl}carbamoyl)-1H-1,2,3-triazol-1-yl]butyl}-2-oxo-1,2-dihydropyrimidin-4-yl)carbamate] | < 100 | 100 to 500
O=C(Nc1ccn(CCC(F)Cn2cc(C(=O)NCc3cccc(OC(F)(F)F)c3)nn2)c(=O)n1)OC1CCC(F)(F)CC1 (centres unmarked) [Example 498, 4,4-difluorocyclohexyl N-(1-{3-fluoro-4-[4-({[3-(trifluoro-methoxy)phenyl]methyl}carbamoyl)-1H-1,2,3-triazol-1-yl]butyl}-2-oxo-1,2-dihydropyrimidin-4-yl)carbamate] | < 100 | < 100
O=C(Nc1ccn(CCC(F)Cn2cc(C(=O)NCc3cccc(OC(F)(F)F)c3)nn2)c(=O)n1)NC1CCC1 (centres unmarked) [Example 499, 1-(4-{4-[(cyclobutylcarbamoyl)amino]-2-oxo-1,2-dihydropyrimidin-1-yl}-2-fluorobutyl)-N-{[3-(trifluoromethoxy)phenyl]methyl}-1H-1,2,3-triazole-4-carboxamide] | 500 to 5000 | > 5000
O=C(Nc1ccn(CCC(F)Cn2cc(C(=O)NCc3cc(C(F)(F)F)ccn3)nn2)c(=O)n1)OCc1cccc(OC(F)(F)F)c1 (centres unmarked) [Example 500, [3-(trifluoromethoxy)phenyl]methyl N-(1-{3-fluoro-4-[4-({[4-(trifluoromethyl)pyridin-2-yl]methyl}carbamoyl)-1H-1,2,3-triazol-1-yl]butyl}-2-oxo-1,2-dihydropyrimidin-4-yl)carbamate] | < 100 | < 100
O=C(Nc1ccn(CCC(F)Cn2cc(C(=O)NCc3cc(C(F)(F)F)ccn3)nn2)c(=O)n1)OCc1ccccc1F (centres unmarked) [Example 501, (2-fluorophenyl)methyl N-(1-{3-fluoro-4-[4-({[4-(trifluoromethyl)pyridin-2-yl]methyl}carbamoyl)-1H-1,2,3-triazol-1-yl]butyl}-2-oxo-1,2-dihydropyrimidin-4-yl)carbamate] | < 100 | 100 to 500
O=C(Cc1ccccc1)Nc1nnc(CCCCn2ccc(NC(=O)CC3CCCC3)c(F)c2=O)s1 [Example 502, 2-cyclopentyl-N-(3-fluoro-2-oxo-1-{4-[5-(2-phenylacetamido)-1,3,4-thiadiazol-2-yl]butyl}-1,2-dihydropyridin-4-yl)acetamide] | < 100 | 100 to 500
O=C(Cc1cccc(OC(F)(F)F)c1)Nc1nnc(CCCCn2ccc(NC(=O)CC3CCCC3)c(F)c2=O)s1 [Example 503, 2-cyclopentyl-N-{3-fluoro-2-oxo-1-[4-(5-{2-[3-(trifluoromethoxy)phenyl]acetamido}-1,3,4-thiadiazol-2-yl)butyl]-1,2-dihydropyridin-4-yl}acetamide] | < 100 | < 100
O=C(Cc1ccccn1)Nc1nnc(CCCCn2ccc(NC(=O)CC3CCCC3)c(F)c2=O)s1 [Example 504, 2-cyclopentyl-N-[3-fluoro-2-oxo-1-(4-{5-[2-(pyridin-2-yl)acetamido]-1,3,4-thiadiazol-2-yl}butyl)-1,2-dihydropyridin-4-yl]acetamide] | < 100 | 100 to 500
CC(=O)Nc1nnc(CCCCn2ccc(NC(=O)CC3CCCC3)c(F)c2=O)s1 [Example 505, 2-cyclopentyl-N-{1-[4-(5-acetamido-1,3,4-thiadiazol-2-yl)butyl]-3-fluoro-2-oxo-1,2-dihydropyridin-4-yl}acetamide] | < 100 | 500 to 5000
